Assay results as given in patent US9686984B2, “Macrocyclic picolinamides as fungicides” (DOW AGROSCIENCES LLC, priority 2014, dated 2017).
Where two headings read alike, the source gives them in different places.

Key:
Zymoseptoria tritici = test: Leaf Blotch of Wheat (SEPTTR) disease control on wheat seedlings; assay type: in vivo; conditions: for pest or weed control at 121.5 g/ha: Low Volume (121.5 g/H); for pest or weed control at 100 µg/mL: High Volume (100 ppm)
Procedure: Example A: Evaluation of Fungicidal Activity: Leaf Blotch of Wheat (Mycosphaerella graminicola; Anamorph: Zymoseptoria tritici; Bayer code […]) Technical grades of materials were dissolved in acetone, which were then mixed with nine volumes of water containing 110 ppm Triton X-100. The fungicide solutions were applied onto wheat seedlings using an automated booth sprayer to run-off. All sprayed plants were allowed to air dry prior to further handling. All fungicides were evaluated using the aforementioned method for their activity vs. all target diseases, unless stated otherwise. Wheat leaf blotch and brown rust activity were also evaluated using track spray applications, in which case the fungicides were formulated as EC formulations, containing 0.1% Trycol 5941 in the spray solutions. Wheat plants (variety Yuma) were grown from seed in a greenhouse in 50% mineral soil/50% soil-less Metro mix until the first leaf was fully emerged, with 7-10 seedlings per pot. These plants were inoculated with an aqueous spore suspension of Septoria tritici either prior to or after fungicide treatments. After inoculation the plants were kept in 100% relative humidity (one day in a dark dew chamber followed by two to three days in a lighted dew chamber at 20° C.) to permit spores to germinate and infect the leaf. The plants were then transferred to a greenhouse set at 20° C. for disease to develop. When disease symptoms were fully expressed on the 1st leaves of untreated plants, infection levels were assessed on a scale of 0 to 100 percent disease severity. Percent disease control was calculated using the ratio of disease severity on treated plants relative to untreated plants.

Puccinia triticina = test: Wheat Brown Rust (PUCCRT) disease control on wheat seedlings; assay type: in vivo; conditions: for pest or weed control at 121.5 g/ha: Low Volume (121.5 g/H); for pest or weed control at 100 µg/mL: High Volume (100 ppm)
Procedure: Technical grades of materials were dissolved in acetone, which were then mixed with nine volumes of water containing 110 ppm Triton X-100. The fungicide solutions were applied onto wheat seedlings using an automated booth sprayer to run-off. All sprayed plants were allowed to air dry prior to further handling. All fungicides were evaluated using the aforementioned method for their activity vs. all target diseases, unless stated otherwise. Wheat leaf blotch and brown rust activity were also evaluated using track spray applications, in which case the fungicides were formulated as EC formulations, containing 0.1% Trycol 5941 in the spray solutions. Wheat plants (variety Yuma) were grown from seed in a greenhouse in 50% mineral soil/50% soil-less Metro mix until the first leaf was fully emerged, with 7-10 seedlings per pot. These plants were inoculated with an aqueous spore suspension of Septoria tritici either prior to or after fungicide treatments. After inoculation the plants were kept in 100% relative humidity (one day in a dark dew chamber followed by two to three days in a lighted dew chamber at 20° C.) to permit spores to germinate and infect the leaf. The plants were then transferred to a greenhouse set at 20° C. for disease to develop. When disease symptoms were fully expressed on the 1st leaves of untreated plants, infection levels were assessed on a scale of 0 to 100 percent disease severity. Percent disease control was calculated using the ratio of disease severity on treated plants relative to untreated plants. Example B: Evaluation of Fungicidal Activity: Wheat Brown Rust (Puccinia triticina; Synonym: Puccinia recondita f. sp. tritici; Bayer code PUCCRT) Wheat plants (variety Yuma) were grown from seed in a greenhouse in 50% mineral soil/50% soil-less Metro mix until the first leaf was fully emerged, with 7-10 seedlings per pot. These plants were inoculated with an aqueous spore suspension of Puccinia triticina either prior to or after fungicide treatments. After inoculation the plants were kept in a dark dew room at 22° C. with 100% relative humidity overnight to permit spores to germinate and infect the leaf. The plants were then transferred to a greenhouse set at 24° C. for disease to develop. Fungicide formulation, application and disease assessment followed the procedures as described in the Example A.

Phakopsora pachyrhizi = test: Asian Soybean Rust (PHAKPA) disease control; assay type: in vivo; conditions: 25 ppm
Procedure: Example H: Evaluation of Fungicidal Activity: Asian Soybean Rust (Phakopsora pachyrhizi; Bayer Code […]) Technical grades of materials were dissolved in acetone, which were then mixed with nine volumes of water containing 0.011% Tween 20. The fungicide solutions were applied onto soybean seedlings using an automated booth sprayer to run-off. All sprayed plants were allowed to air dry prior to further handling. Soybean plants (variety Williams 82) were grown in soil-less Metro mix, with one plant per pot. Two weeks old seedlings were used for testing. Plants were inoculated either 3 days prior to or 1 day after fungicide treatments. Plants were incubated for 24 h in a dark dew room at 22° C. and 100% relative humidity then transferred to a growth room at 23° C. for disease to develop. Disease severity was assessed on the sprayed leaves.

[1] = 24 h, 1 Day Protectant, read-out: SEPTTR disease control, 1 DP
[2] = 72 h, 3 Day Curative, read-out: SEPTTR disease control, 3 DC
[3] = 24 h, 1 Day Protectant, read-out: PUCCRT disease control, 1 DP
[4] = 72 h, 3 Day Curative, read-out: PUCCRT disease control, 3 DC

SMILES | pest or weed control at 121.5 g/ha (Zymoseptoria tritici; [1]) | pest or weed control at 121.5 g/ha (Zymoseptoria tritici; [2]) | pest or weed control at 121.5 g/ha (Puccinia triticina; [3]) | pest or weed control at 121.5 g/ha (Puccinia triticina; [4]) | melting point | pest or weed control at 100 µg/mL (Zymoseptoria tritici; [1]) | pest or weed control at 100 µg/mL (Zymoseptoria tritici; [2]) | pest or weed control at 100 µg/mL (Puccinia triticina; [3]) | pest or weed control at 100 µg/mL (Puccinia triticina; [4]) | PHAKPA disease control, 1DP (Phakopsora pachyrhizi; 1 Day Protectant) | PHAKPA disease control, 3DC (Phakopsora pachyrhizi; 3 Day Curative)
COc1ccnc(C(=O)N[C@H]2CCO[C@H](CCc3ccccc3)[C@@H](CCC(C)C)[C@H](C)OC2=O)c1OCOC(C)=O [Compound 26] | > 70% | > 70% | > 70% | > 70% | 48 to 54 °C |  |  |  |  |  | 
COc1ccnc(C(=O)N[C@H]2CCO[C@H](CCc3ccc(F)cc3)[C@@H](CCC(C)C)[C@H](C)OC2=O)c1OCOC(C)=O [Compound 27] | > 70% | > 70% | > 70% | > 70% | 49 to 54 °C |  |  |  |  |  | 
COc1ccnc(C(=O)N[C@H]2CCO[C@H](Cc3ccccc3)[C@@H](CCC(C)C)[C@H](C)OC2=O)c1OCOC(C)=O [Compound 29] | > 70% | > 70% | > 70% | > 70% | 55 to 60 °C |  |  |  |  |  | 
COc1ccnc(C(=O)N[C@H]2CCO[C@H](CCc3ccc(F)cc3)[C@@H](CCC(C)C)[C@H](C)OC2=O)c1OCOC(=O)C(C)C [Compound 39] | > 70% | < 70% | > 70% | > 70% | 49 to 54 °C |  |  |  |  |  | 
COc1ccnc(C(=O)N[C@H]2CCOC[C@@H](Cc3ccccc3-c3ccccc3)[C@H](C)OC2=O)c1OCOC(=O)C(C)C [Compound 40] | > 70% | > 70% | > 70% | > 70% | 54 to 59 °C |  |  |  |  |  | 
CCC[C@H]1OCC[C@H](NC(=O)c2nccc(OC)c2OCOC(=O)COCC)C(=O)O[C@@H](C)[C@@H]1Cc1ccccc1 [Compound 43] | > 70% | > 70% | > 70% | > 70% |  | > 70% | > 70% | > 70% | > 70% | A (>70) | A (>70)
CCC[C@H]1OCC[C@H](NC(=O)c2nccc(OC)c2O)C(=O)O[C@@H](C)[C@@H]1Cc1ccccc1 [Compound 50] |  |  |  |  | 52 to 56 °C | > 70% | > 70% | > 70% | > 70% |  | 
CCCC[C@H]1[C@H](C)OC(=O)[C@@H](NC(=O)c2nccc(OC)c2O)CCO[C@@H]1CC [Compound 67] |  |  |  |  | 44 to 46 °C | > 70% | < 70% | > 70% | > 70% |  | 
